Reference: article PMC11475570, “Impact of Optimized Ku–DNA Binding Inhibitors on the Cellular and In Vivo DNA Damage Response” (Cancers, 2024)

Assays:
[1] = test system: H460 NSCLC cells; assay: Cellular uptake by HPLC; format: in vitro ADME, Human; settings: H460, 10 µM
Description: Cellular uptake was evaluated in two NSCLC cell lines, H460 and A549. Cells were seeded into 6-well plates at a density of 1 × 10^6 cells per well and cultured as monolayers at 37 °C and 5% CO2 for 18–24 h. Ku-DBis were added to the media at a concentration of 10 µM and incubation continued for the times indicated. Media were removed, cells were washed 3 times with PBS, 1 mL of methanol was added to each well, and cells were agitated overnight at 4 °C. The methanol was collected, and wells were washed with an additional 1 mL of methanol that was then pooled with the original. The methanol extracts were then dried under vacuum, resuspended in methanol, and analyzed by HPLC using a 250 × 4.6 and 5 μm C-18 reverse phase column with 1% TFA mobile phase in acetonitrile (ACN) gradient elution. Absorption was monitored at 425 nm, HPLC peaks were quantified using a standard curve, and picomoles of compound per million cells was calculated.

[2] = test system: A549 NSCLC adenocarcinoma xenograft; assay: A549 NSCLC xenograft (CDX), intratumoral Ku-DBi with or without IR; format: in vivo, mice; settings: for Ki-67 expression in tumors: IHC and Western blot
Description: The in vivo studies were conducted as approved by the Institutional Animal Care and Use Committee at Indiana University School of Medicine. A549 cells (~2.5 × 10^6) in 50% Matrigel were injected into the hind flanks of 8–10-week-old NOD.Cg-Rag1tm1Mom Il2rgtm1Wjl/SzJ (NRG) mice (IVT, In vivo Therapeutics Core, Indiana University Melvin and Bren Simon Comprehensive Cancer Center, Indianapolis, IN, USA) as previously described. Tumor volumes were monitored by electronic caliper measurement. Mice were randomized into groups of 3 or 4 using a random group generator; 6 different scenarios were generated, and the scenario with the most similar tumor volume averages across groups was selected. Treatments were initiated when tumors were ~600 mm^3. Tumors were administered Ku-DBi (30 µL of 10 mM) or vehicle (30 µL of DMSO) via intratumoral injection 4 h before 5 Gy irradiation of the tumor with a single dose of X-rays (250 kVp; dose rate = 1.4 Gy/min; 2 cm × 2 cm field) under isoflurane anesthesia. […] Mice were sacrificed 2 h post-irradiation (or 2 h post-sham irradiation); tumors were excised and processed for immunohistochemistry (IHC) assays. Cell-free protein extracts were prepared to assess DNA-PKcs autophosphorylation and γ-H2AX levels.
Protein lysates, ranging from 20 to 30 μg, were separated by SDS-PAGE (4–20% Mini Protean TGX Gels, BioRad, Hercules, CA, USA) and transferred onto PVDF membranes (Bio-Rad) through wet transfer. Membranes blocked in 0.5% Tween and 3% BSA in 1× TBS for 1 h were probed with the following primary antibodies: Phospho-DNA PKcs (S2056) (Cat: ab124918, Abcam, Cambridge, UK), total DNA-PKcs (Cat: sc-5282, Santa Cruz Biotechnology, Dallas, TX, USA), and γ-H2AX pS139 (Cat: 613401, BioLegend, San Diego, CA, USA). […] All primary antibodies were prepared with 3% BSA and 0.02% NaN3 in TBS with 0.5% Tween. Goat anti-rabbit or anti-mouse IgG (H + L)–HRP conjugates (Cat: 170-6515 or 170-6516, Bio-Rad) were used as secondary antibodies to detect these proteins. Imaging, densitometric analysis, and quantification of protein expression were performed as previously described.
Excised tumors were fixed in 4% paraformaldehyde (PFA) solution in PBS for 24 h at 4 °C. After fixation, tumors were transferred to 70% ethanol and paraffin embedding. Sectioning was completed by the Indiana University Histology Core at the IU School of Medicine. Representative 3 μm-thick sections for each treatment were stained with H and E (HE; Harris hematoxylin, regressive method) for histologic examination or were processed for Ki-67 IHC immunodetection. Briefly, paraffin-embedded sections were deparaffinized in a xylene series (4 × 3 min) and rehydrated in a series of graded alcohol dilutions (100%, 95%, 70%, and ddH2O, 2 × 2 min each). […]

[3] = test system: A549 cells; assay: γH2AX single-agent DNA damage (Western blot, immunofluorescence); format: cell-based, Human; settings: Supplemental Figure S6
Source text: Supplementary Figure S6. GL-3392 single agent effect on DNA damage in NSCLC.
(A) Western blot analysis from A549 cells nuclear extracts. (B) Densitometric analysis of bands from western blot immunodetection. The original membranes can be found in File S1 (Appendix for Supplementary Figure S6A). (C) γH2AX expression levels dete rmined by Immunofluorescence. IF staining of DAPI nuclear staining (blue) and γH2AX (pS139) (red). Scale bars: 10µm. (D) Quantitation of integrated fluorescence intensity of γH2AX foci represented as the median of 300 nuclei per field. ns: not significant, ****p <0.0001 as calculated by one-way ANOVA with Dunnett’s multiple comparisons test. […]

[4] = test system: MDA-MB-436; assay: Doxorubicin combination, CCK-8; format: cell-based, Human; settings: BRCA1 mutant MDA-MB-436, 20 µM 3392 pre-treatment 3 h, doxorubicin 72 h
Description: Supplementary Figure S5. Decreased sensitivity to Doxorubicin mediated by Ku-DBi in MDA-436 cells. […] (B) Pre-treatment with vehicle or 20 µM 3392 and media removed after 3 h, prior 72 h doxorubicin treatment after which cell viability was determined by CCK-8. Data are presented as the mean and SEM of triplicate determinations. […]

Uptake time course, initial rate and steady-state uptake [1]: higher cellular levels than 3395
Cellular uptake, fold more efficient than methoxy-derivatives 3395 and 3649 ([1]; media with 10% FBS): ~ 3 fold
SMILES: COc1ccc(-c2ccc(/C=C3\C(=O)N(c4cccc(C(=O)O)c4)c4ccccc43)o2)cc1C(=O)Nc1cccc(OC(F)(F)F)c1 [GL-3392]
Ki-67 expression in tumors ([2]; 3392 intratumoral plus 5 Gy IR): statistically significant decrease in the Ki-67 expression
γ-H2AX in tumors ([2]; 3392 intratumoral plus 5 Gy IR, Western blot): further exacerbated in the combination-treated tumors
IR-induced DNA-PKcs autophosphorylation in tumors ([2]; intratumoral 30 µL of 10 mM, 4 h before 5 Gy, tumors taken 2 h post-irradiation, Western blot): effectively reversed the IR-induced DNA-PKcs autophosphorylation
Ki-67 expression in tumors ([2]; single-agent 3392, intratumoral): limited effects
Induction of direct DNA damage, single agent [3]: cannot be attributed to induction of direct DNA damage
Change in doxorubicin sensitivity [4]: decrease in Dox sensitivity
